Biological target: T1, 14-3-3ζ/SOS1 peptide (Homo sapiens, UniProt P63104)
T1 construct: made in house; host or cells: NiCo21 (DE3) E. coli
Experiment: FA peptide screen, 14-3-3ζ titration to client peptide and compound: SOS1
Format: binding
Details: 250 μM compound, 100 nM peptide; +1 Ala
Procedure: Since the hub protein 14-3-3 binds to hundreds of phosphoprotein partners, selectivity of PPI stabilization is a major challenge. The interplay of chemical reactivity, and the topology and functionality of the composite binding pocket shaped by 14-3-3 and Tau potentially provide entries towards selective stabilization. […] Here, 14-3-3ζ was titrated to a constant concentration of client peptide (100 nM) and compound (250 μM) to determine the SF250μM values for the particular 14-3-3 PPI. A variety of 14-3-3 binding proteins was represented in this client panel whereby the size and hydrophobicity of the +1 amino acid were varied. […]
chromatography (HisTrap high performance cartridges, Cytiva). […] Dialyzed protein was concentrated to ∼40 mg/mL, analyzed by Q -Tof LC/MS, and aliquots were flash -frozen for storage at −80 °C. […]
0.1% (v/v) Tween20, 0.1% (w/v) BSA). […] Measurements were performed directly after plate preparation, using a Tecan SPARK plate reader at room temperature ( λex: 485±20 nm; λem: 535±25 nm; mirror: automatic; flashes: 30; settle time: 1 ms; gain: optimal; Z -position: calculated from well). […] All data were analyzed using GraphPad Prism (10.0.1) and fitted with a four -parameter logistic model (4PL) to determine binding affinities (dissociation constant, KD). […]
Fluorescence Anisotropy – peptide screen […]

T1 sequence (P63104 whole entry, other chains not shown): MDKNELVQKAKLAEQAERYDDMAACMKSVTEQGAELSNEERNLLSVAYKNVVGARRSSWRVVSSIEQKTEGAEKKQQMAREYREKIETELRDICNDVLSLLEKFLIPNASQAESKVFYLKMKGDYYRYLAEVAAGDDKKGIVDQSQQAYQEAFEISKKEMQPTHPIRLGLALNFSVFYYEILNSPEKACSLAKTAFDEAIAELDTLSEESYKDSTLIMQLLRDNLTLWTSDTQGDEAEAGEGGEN

stabilization of 14-3-3/SOS1 peptide (in words): minor off-target effects
Structure (SMILES): CCc1ccc(-c2nccn2-c2ccc(C=O)c(Br)c2)cc1 [Compound 18]

From paper PMC11892739, “Site-specific molecular glues for the 14-3-3/Tau pS214 protein–protein interaction via reversible covalent imine tethering” (RSC Medicinal Chemistry, 2025)
